Source: paper PMC9179981 (International Journal of Molecular Sciences, 2022)
Where two headings read alike, the source gives them in different places.

What was measured:
[1] = target: T1, AChE (EC 3.1.1.7, Electrophorus electricus) (Electrophorus electricus, UniProt O42275); assay: biochemical
T1 construct: purchased Sigma Aldrich (Steinheim, Germany)
Procedure: (§1) Ellman’s assay was used to assess the inhibitory activity of the newly synthesized compounds towards AChE and BuChE. […] An evaluation of the inhibitory potency towards AChE (EC 3.1.1.7, Electrophorus electricus) and BuChE (EC 3.1.1.8, equine serum) was performed using a modified spectrophotometric Ellman’s method. All necessary reagents for the study were purchased from Sigma Aldrich (Steinheim, Germany). […] The phosphate buffer (pH 8.0) was used as a solvent for reagents. The assay protocol included 14 µL of the tested compound in the nine different concentrations, and 40 µL of substrate acetylthiocholine (ATI) in concentration 1mM or 2mM for AChE and BuChE, respectively. Next, 76 µL of 0.4 mg/mL 5,5′-dithio-bis(2-nitrobenzoic) acid (DTNB) was added to the mixture. In the end, to start the reaction 10 µL of AChE (2U/mL) or BuChE (4U/mL) was added and the solution was mixed and incubated for 10 min. at 37 °C. As a control, instead of the tested compound, we used PBS. […] The experiments were performed independently and in triplicate. Data were expressed as mean ± SD.

[2] = target: T2, BuChE (EC 3.1.1.8, equine serum) (Equus caballus, UniProt P81908); assay: biochemical; type: biochemical
T2 construct: purchased Sigma Aldrich (Steinheim, Germany); host or cells: equine serum
Procedure: as §1

[3] = ORAC-FL antioxidant activity assay; details: Trolox equivalents, mean ± SD; compounds 1–13 µM, tacrine 1–10 µM; pH 7.4
[4] = in vitro; details: human
[5] = target: T3, BuChE (Equus caballus, UniProt P81908); assay: Kinetic characterization of BuChE inhibition (Lineweaver-Burk); type: biochemical, equine; details: Lineweaver-Burk plot; inhibitor 0, 150, 200, 250 nM
T3 construct: purchased Sigma Aldrich (Steinheim, Germany); host or cells: equine serum
Procedure: Lineweaver–Burk plots were prepared to reveal the type of inhibition. The experiments were performed in triplicate.
The protocol of the kinetic study was similar to the previous inhibition study. A phosphate buffer (pH 8.0) was used as the solvent for all reagents. The tested medium consisted of 76 µL DTNB (0.4 mg/mL), 40 µL substrate (ATI) at chosen concentrations (35–350 µM), 10 µL of AChE (2 U/mL) or BuChE (4 U/mL), and 14 µL of the inhibitor. […] For the BuChE kinetic analysis, we used four concentrations of the 3b derivative (0, 150, 200, 250 nM). Changes in absorbance were measured at 412 nm. All experiments were conducted independently and in triplicate. To estimate the type of inhibition, reciprocal plots of 1/V versus 1/[S] were created.

[6] = target: T4, AChE (Electrophorus electricus, UniProt O42275); assay: Kinetic characterization of AChE inhibition (Lineweaver-Burk); type: biochemical; details: Lineweaver-Burk plot; inhibitor 0, 200, 400, 800 nM
T4 construct: purchased Sigma Aldrich (Steinheim, Germany)
Procedure: […]. Lineweaver–Burk plots were prepared to reveal the type of inhibition. The experiments were performed in triplicate.
. The protocol of the kinetic study was similar to the previous inhibition study. A phosphate buffer (pH 8.0) was used as the solvent for all reagents. […]. For the BuChE kinetic analysis, we used four concentrations of the 3b derivative (0, 150, 200, 250 nM). Changes in absorbance were measured at 412 nm. All experiments were conducted independently and in triplicate. […]

[7] = Ellman's method, pH 8.0, 37 °C, mean ± SD of three independent experiments, read-out: AChE IC50 ± SD
[8] = Ellman's method, pH 8.0, 37 °C, mean ± SD of three independent experiments

T2 sequence (P81908 whole entry): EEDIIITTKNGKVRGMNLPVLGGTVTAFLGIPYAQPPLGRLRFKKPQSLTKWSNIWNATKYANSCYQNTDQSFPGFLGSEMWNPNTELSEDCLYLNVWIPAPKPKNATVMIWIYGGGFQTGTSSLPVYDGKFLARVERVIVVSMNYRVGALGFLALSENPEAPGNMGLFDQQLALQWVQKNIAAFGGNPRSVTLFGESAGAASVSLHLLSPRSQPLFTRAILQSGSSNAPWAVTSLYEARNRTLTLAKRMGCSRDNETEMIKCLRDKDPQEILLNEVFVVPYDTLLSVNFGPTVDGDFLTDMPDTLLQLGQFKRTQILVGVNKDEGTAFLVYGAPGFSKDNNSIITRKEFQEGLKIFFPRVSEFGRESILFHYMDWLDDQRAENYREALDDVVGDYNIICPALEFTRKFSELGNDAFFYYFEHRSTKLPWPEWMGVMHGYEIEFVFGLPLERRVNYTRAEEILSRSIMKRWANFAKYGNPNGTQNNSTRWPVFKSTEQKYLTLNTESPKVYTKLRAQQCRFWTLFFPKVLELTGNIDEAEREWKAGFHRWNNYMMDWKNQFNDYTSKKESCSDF
T1 sequence (O42275 24-633): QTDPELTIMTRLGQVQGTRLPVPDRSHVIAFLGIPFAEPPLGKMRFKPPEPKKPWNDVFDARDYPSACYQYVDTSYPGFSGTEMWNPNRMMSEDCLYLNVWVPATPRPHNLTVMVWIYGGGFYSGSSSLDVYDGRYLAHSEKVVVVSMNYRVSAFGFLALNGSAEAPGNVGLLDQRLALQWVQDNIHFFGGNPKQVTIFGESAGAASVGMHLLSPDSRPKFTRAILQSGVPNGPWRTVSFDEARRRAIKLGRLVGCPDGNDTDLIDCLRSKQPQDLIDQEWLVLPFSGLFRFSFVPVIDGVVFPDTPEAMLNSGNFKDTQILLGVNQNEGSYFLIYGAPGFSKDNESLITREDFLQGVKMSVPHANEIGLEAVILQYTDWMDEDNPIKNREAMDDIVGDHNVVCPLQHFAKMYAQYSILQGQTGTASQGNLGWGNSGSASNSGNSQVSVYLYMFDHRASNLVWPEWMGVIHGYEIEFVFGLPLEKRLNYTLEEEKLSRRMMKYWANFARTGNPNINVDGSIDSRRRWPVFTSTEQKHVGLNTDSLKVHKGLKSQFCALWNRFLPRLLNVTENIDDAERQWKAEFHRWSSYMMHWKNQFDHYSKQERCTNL
T3 sequence (P81908 whole entry): as the sequence (P81908 whole entry) above
T4 sequence (O42275 24-633): as the sequence (O42275 24-633) above

Row | Compound | IC50 [1, 7] [nM] | Selectivity for AChE ([1]; IC50(BuChE)/IC50(AChE)) | IC50 [2, 8] [nM] | Selectivity for BuChE ([2]; IC50(AChE)/IC50(BuChE)) | ORAC (TE) [3] [TE] | further results
1 | Cl.O=C(NCCCCCCCCNc1c2c(nc3ccccc13)CCC2)c1c2ccccc2nc2ccccc12 [Compound 3g, N-[8-({1H,2H,3H-cyclopenta[b]quinolin-9-yl}amino)octyl]acridine-9-carboxamide hydrochloride] | 701 ± 67.1 | 0.25 | 178 ± 17 | 3.95 | – | –
2 | Cl.O=C(NCCCCCNc1c2c(nc3ccccc13)CCC2)c1c2ccccc2nc2ccccc12 [Compound 3d, N-[5-({1H,2H,3H-cyclopenta[b]quinolin-9-yl}amino)pentyl]acridine-9-carboxamide hydrochloride] | – | 0.043 | 173 ± 18.9 | 23.39 | – | –
3 | Cl.O=C(NCCCCCCCCCNc1c2c(nc3ccccc13)CCC2)c1c2ccccc2nc2ccccc12 [Compound 3h, N-[9-({1H,2H,3H-cyclopenta[b]quinolin-9-yl}amino)nonyl]acridine-9-carboxamide hydrochloride] | 669 ± 83.4 | 0.34 | – | 2.95 | – | –
4 | Cl.O=C(NCCCNc1c2c(nc3ccccc13)CCC2)c1c2ccccc2nc2ccccc12 [Compound 3b, N-[3-({1H,2H,3H-cyclopenta[b]quinolin-9-yl}amino)propyl]acridine-9-carboxamide hydrochloride] | – | – | 104 ± 7.63 | – | 0.4614 ± 0.056 | IC50 [1]: 272 ± 35.1 nM; IC50 at 24 h [4]: 32000 ± 2050 nM; Type of BuChE inhibition [5]: mixed type of inhibition
5 | Cl.O=C(NCCCCCCCNc1c2c(nc3ccccc13)CCC2)c1c2ccccc2nc2ccccc12 [Compound 3f, N-[7-({1H,2H,3H-cyclopenta[b]quinolin-9-yl}amino)heptyl]acridine-9-carboxamide hydrochloride] | 113 ± 7.14 | 1.79 | 204 ± 16 | 0.56 | 0.3254 ± 0.014 | Type of AChE inhibition [6]: mixed type of inhibition; IC50 at 24 h ([4]; human hepatic stellate cells (HSCs)): 49800 ± 4360 nM
6 | Cl.O=C(NCCCCNc1c2c(nc3ccccc13)CCC2)c1c2ccccc2nc2ccccc12 [Compound 3c, N-[4-({1H,2H,3H-cyclopenta[b]quinolin-9-yl}amino)butyl]acridine-9-carboxamide hydrochloride] | 273 ± 22.1 | 0.73 | 200 ± 18.1 | 1.36 | – | –
7 | c1ccc2c(NCCCCCCCNc3c4c(nc5ccccc35)CCCC4)c3c(nc2c1)CCCC3 [Bistacrine, bistacrine, reference compound] | – | – | – | – | – | Selectivity for AChE [1]: 0.56; IC50 ([1]; pH 8, read-out: AChE IC50 ± SD): 405 ± 28.6 nM; Selectivity for BuChE [2]: 1.79; IC50 ([2]; pH 8, read-out: BuChE IC50 ± SD): 226 ± 30.4 nM
8 | Nc1c2c(nc3ccccc13)CCCC2 [Tacrine, tacrine, reference compound] | – | – | – | – | 0.0132 ± 0.009 | –
9 | Cl.O=C(NCCCCCCNc1c2c(nc3ccccc13)CCC2)c1c2ccccc2nc2ccccc12 [Compound 3e, N-[6-({1H,2H,3H-cyclopenta[b]quinolin-9-yl}amino)hexyl]acridine-9-carboxamide hydrochloride] | 395 ± 36.1 | 0.49 | – | 2.02 | – | –
10 | Cl.O=C(NCCNc1c2c(nc3ccccc13)CCC2)c1c2ccccc2nc2ccccc12 [Compound 3a, N-[2-({1H,2H,3H-cyclopenta[b]quinolin-9-yl}amino)ethyl]acridine-9-carboxamide hydrochloride] | 8620 ± 606 | 0.063 | 540 ± 66.9 | 15.96 | – | –
